Among the test systems are SNB-78; HOP-18; KM-20L2; LXFL 529; DLD-1; DMS-114; M19-MEL; XF498; RXF 631.
Test in all cases: NCI-60 cell line screen, 48 h

Structures are written as SMILES.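 Results reflect a 48-hour exposure of cells in 96-well plates to compound at five concentrations. GI50 is the concentration that inhibits growth by half.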 Calls of active or inactive are those of the source. Rule as the data show it: active = GI50 up to about 1.1 µM and inactive = higher.

For the compound `O=C(CCC(=O)C(C(=O)c1ccccc1)c1ccccc1)Nc1cccc(C(F)(F)F)c1` (stereo not given), the GI50 in the experiment on SNB-78, in the experiment on HOP-18, in the experiment on KM-20L2, in the experiment with LXFL 529, in the experiment on DLD-1 and in the experiment on DMS-114 was > 100 µM (inactive) each time. Moreover, the GI50 with M19-MEL and in the experiment with XF498 was > 100 µM (inactive) throughout.

On to `COCOCc1cc(OCc2ccccc2)c(OC)cc1Br`, for which the GI50 in the experiment with SNB-78, with HOP-18, with KM-20L2, with DLD-1, in the experiment on M19-MEL and in the experiment on XF498 was > 100 µM (inactive) each time.

Consider `O=C(Nc1c(O)[nH]c(=S)[nH]c1=O)c1ccccc1`, for which the GI50 with SNB-78, in the experiment with HOP-18, in the experiment on KM-20L2, in the experiment with LXFL 529, with DLD-1 and in the experiment on DMS-114 was > 100 µM (inactive) in each case. The GI50 in the experiment on M19-MEL is > 100 µM (inactive).

Turning to `O=c1[nH]c2c(c3ccccc13)CCc1ccccc1-2`, the GI50 in the experiment on SNB-78, in the experiment with KM-20L2, with LXFL 529, with DMS-114 and in the experiment with M19-MEL was > 100 µM (inactive) each time.

As for `O=C(NCC#CCO)C(F)(F)F`, the GI50 in the experiment with SNB-78, in the experiment with DLD-1, with DMS-114, in the experiment with RXF 631 and with XF498 was > 100 µM (inactive) in each case.

Regarding `COc1ccc(-c2onc(-c3ccc([N+](=O)[O-])cc3)c2C2=NCCN2)cc1`, the GI50 with SNB-78 was 67.3 µM (inactive); in the experiment on HOP-18, 87.5 µM (inactive); in the experiment with KM-20L2, > 100 µM (inactive); in the experiment with LXFL 529, 35.5 µM (inactive); in the experiment with DLD-1, 74.1 µM (inactive); in the experiment with M19-MEL it was > 100 µM (inactive). Further, the GI50 in the experiment on XF498 is 66.7 µM (inactive).

Turning to `N#CC(C#N)=c1c2nsnc2c(=C(C#N)C#N)c2nsnc12`, the GI50 in the experiment with SNB-78 was 1.74 µM (inactive); with HOP-18, 2.66 µM (inactive); in the experiment with KM-20L2, 1.8 µM (inactive); in the experiment with LXFL 529, 1.63 µM (inactive); with DLD-1 it was 2.03 µM (inactive); with DMS-114 it was 1.91 µM (inactive).

With `CCCCCCCCCCCCCCCCCCNC(=O)OCC(CNS(=O)(=O)CCC[n+]1cccc2ccccc21)COC` (stereo not given), the GI50 with SNB-78 was 1.23 µM (inactive); in the experiment on HOP-18, 3.32 µM (inactive); in the experiment with KM-20L2, 0.776 µM (active); in the experiment on LXFL 529, 1.21 µM (inactive); with DLD-1, 2.85 µM (inactive); in the experiment on DMS-114 it was 1.18 µM (inactive). Also, the results for the GI50 in the experiment on M19-MEL and in the experiment with XF498 were 1.2 µM (inactive) and 1.43 µM (inactive), respectively.

In the case of `O=[N+]([O-])C(=C(c1ccccc1)c1ccccc1)[N+](=O)[O-]`, the GI50 was > 10 µM (inactive) in the experiment with SNB-78; 17.2 µM (inactive) with KM-20L2; 15.6 µM (inactive) in the experiment on LXFL 529; 3.46 µM (inactive) in the experiment with DLD-1; 18.7 µM (inactive) in the experiment with DMS-114.

With `Cc1nc2c(n1CCC(C)C)C(=O)c1ccccc1C2=O`, the GI50 with SNB-78 was 28.1 µM (inactive); in the experiment with KM-20L2, 28.5 µM (inactive); with LXFL 529 it was 13.1 µM (inactive); with DLD-1, 11.1 µM (inactive); in the experiment with M19-MEL, 14.5 µM (inactive); in the experiment with XF498, 17.2 µM (inactive).

On to `Cc1cc2c(=O)c3ccc(Cl)cc3[nH]c2c(C(=O)O)c1C`, for which the GI50 with SNB-78, with HOP-18, with KM-20L2, with LXFL 529, in the experiment on DLD-1 and in the experiment with DMS-114 was > 100 µM (inactive) throughout. The GI50 in the experiment on M19-MEL and with XF498 was > 100 µM (inactive) in each case.

Turning to `CC(C)(C)C(=O)Nc1ccccc1Br`, the GI50 in the experiment with KM-20L2, in the experiment on LXFL 529, in the experiment on DLD-1, in the experiment with DMS-114, in the experiment with M19-MEL and in the experiment on XF498 was > 100 µM (inactive) in each case.

For `CC(=O)/C=C/c1ccc(C2CC(C)=Nc3c(ccc4c3C(=O)c3ccccc3C4=O)N2)cc1` (stereo not given), the GI50 in the experiment on SNB-78 is > 100 µM (inactive); in the experiment on HOP-18, > 80.9 µM (inactive); with KM-20L2, > 100 µM (inactive); in the experiment with DLD-1, 24.7 µM (inactive); in the experiment on DMS-114, 34.9 µM (inactive); in the experiment on M19-MEL it was > 62.5 µM (inactive). For the same compound, the GI50 in the experiment with XF498 is > 100 µM (inactive).

On to `CC(C)C1COC(c2ccc3ccccc3c2-c2c(O[Si](C)(C)C(C)(C)C)ccc3ccccc23)=N1` (stereo not given), for which the GI50 with SNB-78 is 6.59 µM (inactive); in the experiment with KM-20L2 it was 19.5 µM (inactive); in the experiment on LXFL 529 it was 15.4 µM (inactive); in the experiment on DLD-1, 17.1 µM (inactive); with DMS-114, 15.6 µM (inactive); in the experiment with RXF 631, 14.9 µM (inactive). Further, the GI50 with M19-MEL was 18.8 µM (inactive); in the experiment with XF498, 14.5 µM (inactive).

Consider `CCCCN(CCCC)CCCn1cnc2ncccc2c1=O`, for which the GI50 in the experiment with SNB-78 was > 100 µM (inactive); with KM-20L2, > 100 µM (inactive); in the experiment on LXFL 529, > 100 µM (inactive); in the experiment on DLD-1, > 100 µM (inactive); in the experiment with DMS-114, 53.6 µM (inactive); in the experiment on M19-MEL, > 100 µM (inactive). For the same compound, the GI50 in the experiment on XF498 was > 100 µM (inactive).

On to `O=C(CC12C3C4C1C1C2C3C41CC(=O)NO)NO` (stereo not given), for which the GI50 is 44.3 µM (inactive) in the experiment on SNB-78; 38.2 µM (inactive) in the experiment with KM-20L2; 47.6 µM (inactive) in the experiment with LXFL 529; 48.1 µM (inactive) in the experiment on DLD-1; 24.2 µM (inactive) in the experiment with DMS-114; 27.4 µM (inactive) with RXF 631. The GI50 in the experiment with XF498 was > 100 µM (inactive).

With `Cc1ccccc1NC(=O)C(=O)c1c(O)c2ccc(O)cc2oc1=O`, the GI50 in the experiment with HOP-18, in the experiment on KM-20L2, with LXFL 529, with DLD-1, in the experiment with DMS-114 and with M19-MEL was > 100 µM (inactive) in each case. In addition, in the experiment on XF498, the GI50 is > 100 µM (inactive).

Take `CCC(C)CCOC(=O)c1ccc(/N=C\c2ccc(/C=N/c3ccc(C(=O)OCCC(C)CC)cc3)cc2)cc1` (stereo not given): the GI50 in the experiment on SNB-78, with HOP-18, in the experiment on KM-20L2, in the experiment on LXFL 529, with DLD-1 and in the experiment on DMS-114 was > 100 µM (inactive) in each case.

`CSc1ccc2c(cc1=O)C(NC(=O)c1ccc(OC(C)=O)cc1)CCc1cc(O)c(O)c(O)c1-2` (stereo not given): the GI50 in the experiment with SNB-78 is 30.8 µM (inactive); with KM-20L2, 37.5 µM (inactive); in the experiment with LXFL 529 it was 17.3 µM (inactive); with DLD-1 it was 17.8 µM (inactive); in the experiment on DMS-114, 19.8 µM (inactive); in the experiment on M19-MEL, 12.8 µM (inactive).

Consider `CCCN(CCC)c1c([N+](=O)[O-])cc(C(N)=O)cc1[N+](=O)[O-]`, for which the GI50 in the experiment on LXFL 529 is > 100 µM (inactive); with DLD-1 it was > 100 µM (inactive); in the experiment on DMS-114, 71.9 µM (inactive); in the experiment on M19-MEL, 48.5 µM (inactive); in the experiment on XF498, 81.3 µM (inactive).

Source of the values: ChEMBL document CHEMBL1201862, “PubChem BioAssay data set” (2004).
